Results as given in patent US20240368154A1 (GENOSCO Inc., priority 2023, published 2024).
Counter-ions that a name gives are not always drawn.

Key:
[1] = biological target: T1, Recombinant ROCK1 (amino acids 1-477) (Homo sapiens, UniProt Q13464); assay: ROCK inhibition assay, LANCE Ultra TR-FRET kinase assay; type: biochemical; settings: at Km of ATP (table title), method: 1 mM ATP, 50 nM ULight-CREBtide substrate, 1 hour, room temperature
T1 construct: Recombinant ROCK1 (amino acids 1-477)
Description: (§1) Kinase IC50 was determined through an in vitro assay based on LANCE Ultra TR-FRET (Time-Resolved Fluorescence Resonance Energy Transfer) homogeneous technologies method (Perkin Elmer). Recombinant ROCK1 (amino acids 1-477) and ROCK2 (amino acids 5-554) proteins were purchased from Carna Biosciences and SignalChem. Compound activities were measured by Envision and IC50s were calculated. The assays were performed in white LUMITRAC™ 200 96 well half-area microplates from Greiner Bio-One. The kinase reaction buffer consisted of 50 mM HEPES pH 7.5, 1 mM EGTA, 10 mM MgCl2, 2 mM DTT and 0.01% Tween-20. Kinases were incubated with 50 nM (ULight-CREBtide) substrate in the presence of 1 mM (ROCK1) or 1 mM (ROCK2) of ATP. The kinase reaction was carried out for 1 hour before addition of a stopping buffer to a final of 10 mM EDTA and 0.6 nM of LANCE Ultra Europium anti-phospho-CREB (Ser133) antibody (PerkinElmer TRF0200) in LANCE detection buffer. All assay incubations were performed at room temperature, and the microplates were sealed with polyester film during that time. The reaction was incubated for 1 hour, and the signal was read in Envision in TR-FRET mode (excitation at 320 nm and emission at 615/665 nm).
(§2) As used herein, a way to describe potency of inhibitory activity (nM) is a value of inhibitory activity at 50% (IC50).

[2] = biological target: T2, Recombinant ROCK2 (amino acids 5-554) (Homo sapiens, UniProt O75116); assay: as above; type: biochemical; settings: at Km of ATP (table title), method: 1 mM ATP, 50 nM ULight-CREBtide substrate, 1 hour, room temperature
T2 construct: ROCK2 (amino acids 5-554)
Description: as §1, §2

T1 sequence (Q13464 1-477): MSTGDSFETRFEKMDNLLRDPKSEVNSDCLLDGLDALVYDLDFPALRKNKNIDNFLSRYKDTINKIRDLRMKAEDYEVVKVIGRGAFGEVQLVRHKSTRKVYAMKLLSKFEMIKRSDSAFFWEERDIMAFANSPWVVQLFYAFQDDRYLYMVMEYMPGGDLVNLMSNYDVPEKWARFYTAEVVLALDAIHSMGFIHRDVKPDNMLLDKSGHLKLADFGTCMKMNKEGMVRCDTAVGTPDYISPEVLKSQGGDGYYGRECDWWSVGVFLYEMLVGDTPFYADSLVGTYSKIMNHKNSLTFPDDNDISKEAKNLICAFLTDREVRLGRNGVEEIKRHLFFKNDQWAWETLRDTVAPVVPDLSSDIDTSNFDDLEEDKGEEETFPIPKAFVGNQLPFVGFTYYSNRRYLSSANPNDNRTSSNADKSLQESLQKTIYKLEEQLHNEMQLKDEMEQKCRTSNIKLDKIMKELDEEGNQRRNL
T2 sequence (O75116 5-554): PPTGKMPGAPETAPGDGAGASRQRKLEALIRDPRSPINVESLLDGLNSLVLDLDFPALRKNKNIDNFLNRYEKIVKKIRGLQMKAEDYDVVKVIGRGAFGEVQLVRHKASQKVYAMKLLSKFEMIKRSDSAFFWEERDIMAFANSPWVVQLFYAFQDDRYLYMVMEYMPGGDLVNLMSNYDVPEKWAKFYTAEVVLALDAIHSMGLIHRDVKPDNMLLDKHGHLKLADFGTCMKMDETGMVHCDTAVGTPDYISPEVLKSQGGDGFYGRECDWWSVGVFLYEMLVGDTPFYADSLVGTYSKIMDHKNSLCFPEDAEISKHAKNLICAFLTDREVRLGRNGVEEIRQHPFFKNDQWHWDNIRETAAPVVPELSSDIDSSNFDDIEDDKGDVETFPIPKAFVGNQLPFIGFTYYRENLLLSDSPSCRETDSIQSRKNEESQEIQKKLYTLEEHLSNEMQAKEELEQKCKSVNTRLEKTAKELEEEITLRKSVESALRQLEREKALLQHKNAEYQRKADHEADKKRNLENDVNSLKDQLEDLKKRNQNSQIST

Row | IC50 [1] [nM] | IC50 [2] [nM] | IC50 ([1]; hydrochloride) [nM] | IC50 ([2]; hydrochloride) [nM] | SMILES
1 | < 10 | < 10 | – | – | C[C@@H](O)Cn1cc(C(=O)C2COc3ccc(F)cc3C2)c2cnc(-c3cn[nH]c3F)nc21 (stereo partly drawn) [Compound 1-48]
2 | < 10 | < 10 | – | – | C[C@@H](O)Cn1cc(C(=O)[C@@H]2COc3ccc(F)cc3C2)c2cnc(-c3cn[nH]c3F)nc21 [Compound 1-49]
3 | < 10 | < 10 | – | – | C[C@@H](O)Cn1cc(C(=O)[C@@H]2COc3ccc(F)cc3C2)c2cnc(-c3cn[nH]c3F)nc21 [Compound 1-50]
4 | < 10 | < 10 | – | – | C[C@@H](O)Cn1cc(C(=O)[C@@H]2COc3ccc(F)cc3C2)c2cnc(-c3cn[nH]c3F)nc21 [Compound 1-51]
5 | 51 to 500 | 11 to 50 | – | – | COc1[nH]ncc1-c1ncc2c(C(=O)C3COc4ccc(F)cc4C3)cn(CC(C)(C)O)c2n1 (stereo not drawn) [Compound 1-52]
6 | 51 to 500 | 11 to 50 | – | – | COc1[nH]ncc1-c1ncc2c(C(=O)C3COc4ccc(Cl)cc4C3)cn(C[C@H](C)O)c2n1 (stereo partly drawn) [Compound 1-53]
7 | 11 to 50 | < 10 | – | – | CC(C)(O)Cn1cc(C(=O)C2COc3ccc(Cl)cc3C2)c2cnc(-c3cn[nH]c3F)nc21 (stereo not drawn) [Compound 1-54]
8 | < 10 | < 10 | – | – | CC(C)(O)Cn1cc(C(=O)[C@@H]2COc3ccc(Cl)cc3C2)c2cnc(-c3cn[nH]c3F)nc21 [Compound 1-55]
9 | < 10 | < 10 | – | – | CC(C)(O)Cn1cc(C(=O)C2COc3ccc(Cl)cc3C2)c2cnc(-c3cn[nH]c3Cl)nc21 (stereo not drawn) [Compound 1-57]
10 | 11 to 50 | < 10 | – | – | COc1[nH]ncc1-c1ncc2c(C(=O)C3COc4ccc(Cl)cc4C3)cn(CC(C)(C)O)c2n1 (stereo not drawn) [Compound 1-58]
11 | – | – | 51 to 500 | 11 to 50 | COc1n[nH]cc1-c1cc2c(cn1)c(C(=O)C1COc3ccc(Cl)cc3C1)cn2CCO (stereo not drawn) [Compound 1-59, hydrochloride]
12 | < 10 | < 10 | – | – | COc1[nH]ncc1-c1cc2c(cn1)c(C(=O)C1COc3ccc(Cl)cc3C1)cn2CCN(C)C (stereo not drawn) [Compound 1-60, (6-chlorochroman-3-yl)(1-(2-(dimethylamino)ethyl)-6-(5-methoxy-1H-pyrazol-4-yl)-1H-pyrrolo[3,2-c]pyridin-3-yl)methanone metanesulfonic acid]
13 | < 10 | < 10 | – | – | O=C(c1cn(CCO)c2cc(-c3cn[nH]c3)ccc12)C1COc2ccccc2O1 (stereo not drawn) [Compound 2-1, 2,3-Dihydro-1,4-benzodioxin-3-yl-[1-(2-hydroxyethyl)-6-(1H-pyrazol-4-yl)indol-3-yl]methanone]
14 | < 10 | < 10 | – | – | O=C(c1cn(CCO)c2cc(-c3cn[nH]c3)ccc12)C1COc2ccc(Cl)cc2C1 (stereo not drawn) [Compound 2-2, (6-Chlorochroman-3-yl)-[1-(2-hydroxyethyl)-6-(1H-pyrazol-4-yl)indol-3-yl]methanone]
15 | 51 to 500 | 11 to 50 | – | – | O=C(c1cn(CCO)c2cc(-c3c[nH]c4ncccc34)ccc12)C1COc2ccccc2O1 (stereo not drawn) [Compound 2-3]
16 | < 10 | < 10 | – | – | O=C(c1cn(CCO)c2cc(-c3c[nH]nc3Cl)ccc12)C1COc2ccccc2O1 (stereo not drawn) [Compound 2-4]
17 | 11 to 50 | < 10 | – | – | O=C(c1cn(CCO)c2cc(-c3c[nH]nc3Cl)ccc12)C1COc2ccccc2C1 (stereo not drawn) [Compound 2-6]
18 | < 10 | < 10 | – | – | O=C(c1cn(CCO)c2cc(-c3cn[nH]c3)ccc12)C1COc2ccc(F)cc2C1 (stereo not drawn) [Compound 2-7]
19 | 51 to 500 | 51 to 500 | – | – | COc1ccc2c(c1)OCC(C(=O)c1cn(CCO)c3cc(-c4cn[nH]c4)ccc13)C2 (stereo not drawn) [Compound 2-8]
20 | 51 to 500 | 11 to 50 | – | – | O=C(c1cn(CCO)c2cc(-c3cn[nH]c3)ccc12)C1COc2cc(Cl)ccc2O1 (stereo not drawn) [Compound 2-10]
21 | 51 to 500 | < 10 | – | – | O=C(c1cn(CCO)c2cc(-c3cn[nH]c3)ccc12)C1COc2cc(F)ccc2O1 (stereo not drawn) [Compound 2-11]

Row | IC50 [1] [nM] | IC50 [2] [nM] | IC50 ([1]; hydrochloride) [nM] | IC50 ([2]; hydrochloride) [nM] | SMILES
22 | 51 to 500 | 51 to 500 | – | – | O=C(c1cn(CCO)c2cc(-c3cn[nH]c3)ccc12)C1COc2cc(Cl)c(Cl)cc2O1 (stereo not drawn) [Compound 2-12]
23 | 51 to 500 | 11 to 50 | – | – | O=C(c1cn(CCO)c2cc(-c3cn[nH]c3)ccc12)C1COc2ccc(Cl)cc2O1 (stereo not drawn) [Compound 2-13]
24 | 11 to 50 | < 10 | – | – | COc1ccc2c(c1)OC(C(=O)c1cn(CCO)c3cc(-c4cn[nH]c4)ccc13)CO2 (stereo not drawn) [Compound 2-14]
25 | < 10 | < 10 | – | – | COc1ccc2c(c1)CC(C(=O)c1cn(CCO)c3cc(-c4c[nH]nc4Cl)ccc13)CO2 (stereo not drawn) [Compound 2-15]
26 | 11 to 50 | < 10 | – | – | O=C(c1cn(CCO)c2cc(-c3c[nH]nc3F)ccc12)C1COc2ccc(Cl)cc2C1 (stereo not drawn) [Compound 2-16]
27 | 11 to 50 | 11 to 50 | – | – | O=C(c1cn(CCO)c2cc(-c3cn[nH]c3)ccc12)C1COc2ccccc2C1 (stereo not drawn) [Compound 2-23]
28 | 11 to 50 | < 10 | – | – | COCCn1nc(C(=O)C2COc3ccccc3C2)c2ccc(-c3cn[nH]c3)cc21 (stereo not drawn) [Compound 2-24, Chroman-3-yl-[1-(2-methoxyethyl)-6-(1H-pyrazol-4-yl)indazol-3-yl]methanone]
29 | 51 to 500 | 51 to 500 | – | – | O=C(c1nn(CCO)c2cc(-c3c[nH]nc3C(F)(F)F)ccc12)C1COc2ccc(F)cc2C1 (stereo not drawn) [Compound 2-26]
30 | 11 to 50 | < 10 | – | – | COc1n[nH]cc1-c1ccc2c(C(=O)C3COc4ccc(F)cc4C3)nn(CCO)c2c1 (stereo not drawn) [Compound 2-27]
31 | > 501 | > 501 | – | – | CC(C)c1n[nH]cc1-c1ccc2c(C(=O)C3COc4ccc(F)cc4C3)nn(CCO)c2c1 (stereo not drawn) [Compound 2-28]
32 | > 501 | 51 to 500 | – | – | COc1n[nH]cc1-c1ccc2c(C(=O)C3COc4ccc(Cl)cc4C3)nn(CC#N)c2c1 (stereo not drawn) [Compound 2-29]
33 | 51 to 500 | 51 to 500 | – | – | COc1n[nH]cc1-c1ccc2c(C(=O)C3Cc4ccccc4O3)nn(CCO)c2c1 (stereo not drawn) [Compound 2-30]
34 | 51 to 500 | 51 to 500 | – | – | COc1n[nH]cc1-c1ccc2c(C(=O)C3(C)COc4ccccc4O3)nn(CCO)c2c1 (stereo not drawn) [Compound 2-31]
35 | > 501 | 51 to 500 | – | – | COc1n[nH]cc1-c1ccc2c(C(=O)c3coc4ccccc34)nn(CCO)c2c1 [Compound 2-32]
36 | 51 to 500 | 11 to 50 | – | – | COc1n[nH]cc1-c1ccc2c(C(=O)C3COc4ccc(Cl)cc4C3)nn(CC(C)O)c2c1 (stereo not drawn) [Compound 2-33]
37 | 51 to 500 | 11 to 50 | – | – | COc1n[nH]cc1-c1ccc2c(C(=O)C3COc4ccc(Cl)cc4C3)nn(C[C@@H](C)O)c2c1 (stereo partly drawn) [Compound 2-34]
38 | 51 to 500 | 11 to 50 | – | – | COc1n[nH]cc1-c1ccc2c(C(=O)C3COc4ccc(Cl)cc4C3)nn(C[C@H](C)O)c2c1 (stereo partly drawn) [Compound 2-35]
39 | 11 to 50 | < 10 | – | – | O=C(c1nn(CCO)c2cc(-c3cn[nH]c3)ccc12)C1COc2ccc(F)cc2C1 (stereo not drawn) [Compound 3-1, (6-fluorochroman-3-yl)(1-(2-hydroxyethyl)-6-(1H-pyrazol-4-yl)-1H-indazol-3-yl)methanone]
40 | 11 to 50 | < 10 | – | – | O=C(c1nn(CCO)c2cc(-c3cn[nH]c3)ccc12)C1COc2ccccc2C1 (stereo not drawn) [Compound 3-2]
41 | 11 to 50 | < 10 | – | – | O=C(c1nn(CCO)c2cc(-c3cn[nH]c3)ccc12)C1COc2ccc(F)cc2O1 (stereo not drawn) [Compound 3-3]
42 | 51 to 500 | < 10 | – | – | O=C(c1nn(CCO)c2cc(-c3cn[nH]c3)ccc12)C1COc2ccc(Cl)cc2O1 (stereo not drawn) [Compound 3-4]

Row | SMILES | IC50 [1] [nM] | IC50 [2] [nM] | IC50 ([1]; hydrochloride) [nM] | IC50 ([2]; hydrochloride) [nM]
43 | O=C(c1cn(CCO)c2cc(-c3c[nH]c4ncccc34)ccc12)C1COc2ccccc2C1 (stereo not drawn) [Compound 2-5] | 51 to 500 | 11 to 50 | – | –
44 | O=C(c1cn(CCO)c2cc(-c3cn[nH]c3)ccc12)C1COc2ccc(F)cc2O1 (stereo not drawn) [Compound 2-9] | 11 to 50 | < 10 | – | –
45 | COCCn1nc(C(=O)[C@@H]2COc3ccccc3O2)c2ccc(-c3cn[nH]c3)cc21 [Compound 2-25] | 11 to 50 | 11 to 50 | – | –
